Experimental findings from publication PMC2747306 (Structure (London, England : 1993), 2009) are described below.

The target in one data set is FimX^EAL (Pseudomonas aeruginosa, UniProt Q9HUK6). Description: isothermal titration calorimetry. The format is binding. A general note: Isothermal titration calorimetry measures the heat released or taken up as one component is titrated into another.
The next data set concerns the target FimX^full-length (Pseudomonas aeruginosa, UniProt Q9HUK6). Description: isothermal titration calorimetry. It is filed as binding.
The data set “AUC” concerns the molecule itself. Description: AUC.

For `Nc1nc2c(ncn2[C@@H]2O[C@@H]3CO[P@](=O)(O)O[C@H]4[C@@H](O)[C@H](n5cnc6c(=O)[nH]c(N)nc65)O[C@@H]4CO[P@](=O)(O)O[C@H]3[C@H]2O)c(=O)[nH]1` [c-di-GMP], the results for the Kd at FimX^EAL and on FimX^full-length were 104 nM and 125 nM, respectively.

B1: FimX^ΔEAL (residues 1-431: N-terminal response receiver, PAS and GGDEF domains) (domain or fragment)
chain: MAIEKKTIRLLILEDSQNEAERLVSLFRNAGHATRVHRLTSPEDLAETLQQSWDLLIAAPTSECLEPGEALATLRRQSRDIPFIQLVADNSSDAITDALMLGAQDALPQGEDERLVLVANRELAGLAERRARRAAELALREAEKRCQLLLDSSVDAITYVHDGMHIYANRSYMALFGYEDAEELEGLPVIDLIASCDQGAFKDFLKGYQNDQRQTELVCTGVKLDGQEFKARISLSAATYDGEPCIQVVIRGEVDNAELEEKLREVSSQDPVTGLYNRSHFLDLMDAAVQQAVTARKPSTLAYIHLNGYPSLQADHGLSGIDLLLGQLAGLMREQFGEEADLARFGDSIFAALFKGKTPEQAQAALQRLLKKVENHLFELNGRSAQATLSIGVAGLDEKTAKAQDVMNRAHRCADDAARKGGSQIKQYNPA
For the molecule B1, the “stoichiometry N” value in the data set “AUC” was determined as 2.

As usually defined, the Kd is a measure of binding affinity in units of concentration. The low end stands for a tighter complex, the high end for a looser complex. One may read the stoichiometry N as a count of units in the complex or per binding partner.
